In assay [1] the target is T1, NS3/NS4A-2 (full-length HCV NS3 protease complexed with NS4A-2) (Hepatitis C virus genotype 1a, UniProt P27958).
T1 construct: Recombinant E. coli or Baculovirus full-length NS3; host or cells: E. coli or baculovirus (insect cells)
Briefly: NS3 inhibition assay (NS3-NS4 protease assay). Type of assay: biochemical. Here is the method: Recombinant E. coli or Baculovirus full-length NS3 was diluted to 3.33 μM with assay buffer and transferred material to an eppendorf tube and place in water bath in 4° C. refrigerator. The appropriate amount of NS4A-2 to 8.3 mM in assay buffer was added to equal the volume of NS3 in step 2.1.1 (conversion factor −3.8 mg/272 μL assay buffer). The material was transferred to an eppendorf tube and place in water bath in 4° C. refrigerator.
After equilibration to 4° C., equal volumes of NS3 and NS4A-2 solutions were combined in an eppendorf tube, mix gently with a manual pipettor, and incubate mixture for 15 minutes in the 4° C. water bath. Final concentrations in the mixture are 1.67 μM NS3, 4.15 mM NS4A-2 (2485-fold molar excess NS4A-2).
After 15 minutes at 4° C., the NS3/NS4A-2 eppendorf tube was removed and place it in a room temperature water bath for 10 minutes. NS3/NS4A-2 was aliquoted at appropriate volumes and store at −80° C. (E. coli NS3 run at 2 nM in assay, aliquot at 25 μL. BV NS3 run at 3 nM in assay, aliquot at 30 μL).
Sample compounds were dissolved to 10 mM in DMSO then diluted to 2.5 mM (1:4) in DMSO. Typically, compounds were added to an assay plate at 2.5 mM concentration, yielding upon dilution a starting concentration of 50 microM in the assay inhibition curve. Compounds were serial diluted in assay buffer to provide test solutions at lower concentrations.
The E. coli. NS3/NS4A-2 was diluted to 4 nM NS3 (1:417.5 of 1.67 μM stock−18 μL1.67 μM stock+7497 μL assay buffer). The BV NS3/NS4A-2 was diluted to 6 nM NS3 (1:278.3 of 1.67 μM stock−24 μL1.67 μM stock+6655 μL assay buffer). Using the manual multichannel pipettor, careful not to introduce bubbles into the plate, add 50 μL assay buffer to wells A01-H01 of a black Costar 96-well polypropylene storage plate.
Using the manual multichannel pipettor, careful not to introduce bubbles into the plate, add 50 μL of diluted NS3/NS4A-2 from step 2.2.6 to wells A02-H12 of plate in step 2.2.7. Using the manual multichannel pipettor, careful not to introduce bubbles into the plate, transfer 25 μL of the wells in drug dilution plate in step 2.2.5 to corresponding wells in assay plate in step 2.2.8. Change tips on multichannel pipettor for each row of compounds transferred. Using the manual multichannel pipettor, careful not to introduce bubbles into the plate, mix the wells from the assay plate in step 2.2.9 by aspirating and dispensing 35 μL of the 75 μL in each well five times. Change tips on multichannel pipettor for each row of wells mixed. Cover plate with a polystyrene plate lid and pre-incubate the plate from step 2.2.10 containing NS3 protease and sample compounds 10 minutes at room temperature. While plate from step 2.2.11 is pre-incubating, dilute RETS1 substrate in a 15 mL polypropylene centrifuge tube. Dilute RETS1 substrate to 8 μM (1:80.75 of 646 μM stock−65 μL 646 μM stock+5184 μL assay buffer).
After the plate in step is done pre-incubating, and using the manual multichannel, add 25 μL of substrate to all wells on the plate. Quickly mix the plate as in step 2.2.10, mixing 65 μL of the 100 μL in the wells.
Read the plate in kinetic mode on the Molecular Devices SpectraMax Gemini XS plate reader. Reader settings: Read time: 30 minutes, Interval: 36 seconds, Reads: 51, Excitation λ: 335 nm, Emission λ: 495 nm, cutoff: 475 nm, Automix: off, Calibrate: once, PMT: high, Reads/well: 6, Vmax pts: 21 or 28/51 depending on length of linearity of reaction
IC50s are determined using a four parameter curve fit equation, and converted to Ki's using the following Km's: • Full-length E. coli NS3−2.03 μM • Full-length BV NS3−1.74 μM • where Ki=IC50/(1+[S]/Km)) • Quantitation by ELISA of the Selectable Marker Protein, Neomycin Phosphotransferase II (NPTII) in the HCV Sub-Genomic Replicon, GS4.3

Assay [2] relates to HCV sub-genomic replicon (1377/NS3-3') in HuH-7 hepatoma cells (GS4.3). Briefly: Quantitation by ELISA of NPTII in the HCV sub-genomic replicon, GS4.3. Type of assay: cell-based, hepatitis C virus (HCV). The settings on record: read-out: Replicon EC50. Here is the method:
The HCV sub-genomic replicon (1377/NS3-3′, accession No. AJ242652), stably maintained in HuH-7 hepatoma cells, was created by Lohmann et al. Science 285: 110-113 (1999). The replicon-containing cell culture, designated GS4.3, was obtained from Dr. Christoph Seeger of the Institute for Cancer Research, Fox Chase Cancer Center, Philadelphia, Pa.
GS4.3 cells were maintained at 37° C., 5% CO2, in DMEM (Gibco 11965-092) supplemented with L-glutamine 200 mM (100×) (Gibco25030-081), non-essential amino acids (NEAA) (Biowhittaker 13-114E), heat-inactivated (HI) Fetal Bovine Serum (FBS) (Hyclone SH3007.03) and 750 μg/mL geneticin (G418)(Gibco 10131-035). Cells were sub-divided 1:3 or 4 every 2-3 days.
24 h prior to the assay, GS4.3 cells were collected, counted, and plated in 96-well plates (Costar 3585) at 7500 cells/well in 100 μL standard maintenance medium (above) and incubated in the conditions above. To initiate the assay, culture medium was removed, cells were washed once with PBS (Gibco 10010-023) and 90 μl Assay Medium (DMEM, L-glutamine, NEAA, 10% HI FBS, no G418) was added. Inhibitors were made as a 10× stock in Assay Medium, (3-fold dilutions from 10 μM to 56 pM final concentration, final DMSO concentration 1%), 10 μL were added to duplicate wells, plates were rocked to mix, and incubated as above for 72 h.
An NPTII Elisa kit was obtained from AGDIA, Inc. (Compound direct ELISA test system for Neomycin Phosphotransferase II, PSP 73000/4800). Manufacturer's instructions were followed, with some modifications. 10×PEB-1 lysis buffer was made up to include 500 μM PMSF (Sigma P7626, 50 mM stock in isopropanol). After 72 h incubation, cells were washed once with PBS and 150 μL PEB-1 with PMSF was added per well. Plates were agitated vigorously for 15 minutes, room temperature, then frozen at −70° C. Plates were thawed, lysates were mixed thoroughly, and 100 μl were applied to an NPTII Elisa plate. A standard curve was made. Lysate from DMSO-treated control cells was pooled, serially diluted with PEB-1 with PMSF, and applied to duplicate wells of the ELISA plate, in a range of initial lysate amount of 150 μL-2.5 μL. In addition, 100 μL buffer alone was applied in duplicate as a blank. Plates were sealed and gently agitated at room temperature for 2 h. Following capture incubation, the plates were washed 5×300 μL with PBS-T (0.5% Tween-20, PBS-T was supplied in the ELISA kit). For detection, a 1× dilution of enzyme conjugate diluent MRS-2 (5×) was made in PBS-T, into which 1:100 dilutions of enzyme conjugates A and B were added, as per instructions. Plates were resealed, and incubated with agitation, covered, room temperature, for 2 h. The washing was then repeated and 100 μL of room temperature TMB substrate was added. After approximately 30 minutes incubation (room temperature, agitation, covered), the reaction was stopped with 50 μL 3M sulfuric acid. Plates were read at 450 nm on a Molecular Devices Versamax plate reader.
Inhibitor effect was expressed as a percentage of DMSO-treated control signal, and inhibition curves were calculated using a 4-parameter equation: y=A+((B−A)/(1+((C/x)^D))), where C is half-maximal activity or EC50.
In general terms: ELISA stands for enzyme-linked immunosorbent assay.

Where [3] appears, read: recombinant full-length NS3/NS4A-2, RETS1 substrate, kinetic fluorescence read, read-out: NS3-NS4 IC50.
Where [4] appears, read: Hepatitis C virus, Huh-7, GS4.3 cells, 72 h incubation, NPTII ELISA.

pEC50, pIC50: −log10 of the molar value. Where two headings read alike, the source gives them in different places.

T1 sequence (P27958 1027-1657, one chain of several): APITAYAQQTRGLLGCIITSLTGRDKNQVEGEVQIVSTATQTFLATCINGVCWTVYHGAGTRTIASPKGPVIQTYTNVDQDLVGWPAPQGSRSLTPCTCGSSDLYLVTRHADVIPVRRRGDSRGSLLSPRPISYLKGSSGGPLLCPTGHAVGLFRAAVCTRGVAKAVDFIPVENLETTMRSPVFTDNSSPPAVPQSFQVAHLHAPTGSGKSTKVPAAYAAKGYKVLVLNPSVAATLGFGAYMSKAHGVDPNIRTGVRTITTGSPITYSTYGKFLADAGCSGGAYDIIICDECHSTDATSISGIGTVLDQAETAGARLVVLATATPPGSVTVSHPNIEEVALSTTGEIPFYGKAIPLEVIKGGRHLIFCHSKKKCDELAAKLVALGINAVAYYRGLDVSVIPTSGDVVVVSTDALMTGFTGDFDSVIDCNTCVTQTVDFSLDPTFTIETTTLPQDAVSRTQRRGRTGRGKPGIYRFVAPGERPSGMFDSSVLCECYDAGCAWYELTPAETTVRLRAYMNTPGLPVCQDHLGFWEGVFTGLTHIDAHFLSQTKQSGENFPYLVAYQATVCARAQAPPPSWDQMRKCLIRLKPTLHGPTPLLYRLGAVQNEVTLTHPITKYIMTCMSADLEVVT

By pIC50 is commonly meant the negative decadic logarithm of the IC50, by convention in mol/L. As a reminder, the pEC50 is the EC50 on a negative log10 scale, so that one unit is a factor of ten. `C=C[C@@H]1C[C@]1(NC(=O)[C@@H]1C[C@@H](OC(=O)N2Cc3cccc(Cl)c3C2)CN1C(=O)[C@@H](Nc1nc(-c2ccc(F)nc2)cs1)C1CCCCC1)C(=O)NS(=O)(=O)C1CC1` [Compound 61, [(3R,5S)-5-(((1R,2S)-1-(cyclopropylsulfonylcarbamoyl)-2-vinylcyclopropyl)carbamoyl)-1-((S)-2-cyclohexyl-2-(4-(6-fluoropyridin-3-yl)thiazol-2-ylamino)acetyl)pyrrolidin-3-yl]-4-chloroisoindoline-2-carboxylate]: the pIC50 in assay [1] (setting [3]) is more than 7.00. Besides, in assay [2] (setting [4]), the pEC50 is more than 7.00.

As for `CC[C@@H]1C[C@]1(NC(=O)[C@@H]1C[C@@H](OC(=O)N2Cc3cccc(F)c3C2)CN1C(=O)[C@@H](Nc1cccc(Cl)c1)C(C)C)C(=O)NS(=O)(=O)C1CC1` [Compound 50, [(3R,5S)-1-((S)-2-(3-chlorophenylamino)-3-methylbutanoyl)-5-((1R,2R)-1-(cyclopropylsulfonylcarbamoyl)-2-ethylcyclopropylcarbamoyl)pyrrolidin-3-yl]4-fluoroisoindoline-2-carboxylate], the pIC50 in assay [1] (setting [3]) was more than 7.00. The pEC50 in assay [2] (setting [4]) was more than 7.00.

Regarding `C=C[C@@H]1C[C@]1(NC(=O)C1Cc2cc(Oc3cccc(Cl)c3)ccc2CN1C(=O)[C@@H](Nc1cccc(C(C)(C)C)c1)C(C)C)C(=O)NS(=O)(=O)C1CC1` (stereo partly drawn) [Compound 13, 2-((S)-2-(3-tert-butylphenylamino)-3-methylbutanoyl)-6-(3-chlorophenoxy)-N-((1R,2S)-1-(cyclopropylsulfonylcarbamoyl)-2-vinylcyclopropyl)-1,2,3,4-tetrahydroisoquinoline-3-carboxamide], the pIC50 in assay [1] (setting [3]) was more than 7.00. In addition, in assay [2] (setting [4]), the pEC50 is 4.30 to 5.00.

Turning to “[(3R,5S)-5-(((1R,2R)-1-(Cyclopropylsulfonylcarbamoyl)-2-ethylcyclopropyl)carbamoyl)-1-((S)-2-(5-ethylthiazol-2-ylamino)-3,3-dimethylbutanoyl)pyrrolidin-3-yl]4-chloroisoindoline-2-carboxylate [Compound 66]”, the pIC50 in assay [1] (setting [3]) was more than 7.00. For the same compound, in assay [2] (GS4.3 cells, 72 h incubation, NPTII ELISA), the pEC50 is more than 7.00.

`C=C[C@@H]1C[C@]1(NC(=O)[C@@H]1C[C@@H](OC(=O)N2Cc3cccc(F)c3C2)CN1C(=O)[C@@H](Nc1ccc(F)nc1)C(C)C)C(=O)NS(=O)(=O)C1CC1` [Compound 39, [(3R,5S)-5-((1R,2S)-1-(cyclopropylsulfonylcarbamoyl)-2-vinylcyclopropylcarbamoyl)-1-((S)-2-(6-fluoropyridin-3-ylamino)-3-methylbutanoyl)pyrrolidin-3-yl]4-fluoroisoindoline-2-carboxylate]: the pIC50 in assay [1] (setting [3]) is more than 7.00. In addition, the pEC50 in assay [2] (setting [4]) is 6.00 to 7.00.

As to `CC[C@@H]1C[C@]1(NC(=O)[C@@H]1C[C@@H](OC(=O)N2Cc3cccc(Cl)c3C2)CN1C(=O)[C@@H](Nc1cccc(C(C)(C)C#N)c1)C(C)C)C(=O)NS(=O)(=O)C1CC1` [Compound 54, [(3R,5S)-1-((S)-2-(3-(2-cyanopropan-2-yl)phenylamino)-3-methylbutanoyl)-5-((1R,2R)-1-(cyclopropylsulfonylcarbamoyl)-2-ethylcyclopropylcarbamoyl)-pyrrolidin-3-yl]4-chloroisoindoline-2-carboxylate], the pIC50 in assay [1] (setting [3]) is more than 7.00. Besides, the pEC50 in assay [2] (setting [4]) was more than 7.00.

On to `C=CCCCCC[C@H](Nc1ccc(F)cc1)C(=O)N1C[C@H](OC(=O)N2Cc3cccc(F)c3C2)C[C@H]1C(=O)N[C@]1(C(=O)NS(=O)(=O)C2CC2)C[C@H]1C=C` [Compound 35, [(3R,5S)-5-((1R,2S)-1-(cyclopropylsulfonylcarbamoyl)-2-vinylcyclopropylcarbamoyl)-1-((S)-2-(4-fluorophenylamino)non-8-enoyl)pyrrolidin-3-yl]4-floroisoindoline-2-carboxylate], for which the pIC50 in assay [1] (setting [3]) was more than 7.00. Besides, the pEC50 in assay [2] (setting [4]) is 5.00 to 6.00.

As for `CC(C)(C)[C@H](Nc1cccc(C(F)(F)F)c1)C(=O)N1C[C@H]2[C@@H]([C@H]1C(=O)NC(CC1CCC1)C(=O)C(N)=O)C2(C)C` (stereo partly drawn) [Compound 68], in assay [1], the negative logarithm of the IC50 (pIC50) is 6.00 to 7.00. Besides, in assay [2] (Hepatitis C virus, Huh-7, 72 h), the pEC50 is 4.30 to 5.00.

As for `C=C[C@@H]1C[C@]1(NC(=O)[C@@H]1C[C@@H](OC(=O)N2Cc3cccc(F)c3C2)CN1C(=O)[C@@H](Nc1cccc(C(F)(F)F)c1)C(C)(C)C)C(=O)NS(=O)(=O)C1CC1` [Compound 43, [(3R,5S)-5-((1R,2S)-1-(cyclopropylsulfonylcarbamoyl)-2-vinylcyclopropylcarbamoyl)-1-((S)-3,3-dimethyl-2-(3-(trifluoromethyl)phenylamino)butanoyl)pyrrolidin-3-yl]4-fluoroisoindoline-2-carboxylate], in assay [1] (setting [3]), the pIC50 was more than 7.00. The pEC50 in assay [2] (setting [4]) is more than 7.00.
